{"source": "paper PMC4066437", "about": "“Oxidation of cellular amino acid pools leads to cytotoxic mistranslation of the genetic code” (eLife, 2014)", "molecular_target": "T1, E. coli TyrRS (Escherichia coli, UniProt P0AGJ9)", "T1 construct": "gene tyrS; homodimer", "T1 sequence (P0AGJ9 2-424)": "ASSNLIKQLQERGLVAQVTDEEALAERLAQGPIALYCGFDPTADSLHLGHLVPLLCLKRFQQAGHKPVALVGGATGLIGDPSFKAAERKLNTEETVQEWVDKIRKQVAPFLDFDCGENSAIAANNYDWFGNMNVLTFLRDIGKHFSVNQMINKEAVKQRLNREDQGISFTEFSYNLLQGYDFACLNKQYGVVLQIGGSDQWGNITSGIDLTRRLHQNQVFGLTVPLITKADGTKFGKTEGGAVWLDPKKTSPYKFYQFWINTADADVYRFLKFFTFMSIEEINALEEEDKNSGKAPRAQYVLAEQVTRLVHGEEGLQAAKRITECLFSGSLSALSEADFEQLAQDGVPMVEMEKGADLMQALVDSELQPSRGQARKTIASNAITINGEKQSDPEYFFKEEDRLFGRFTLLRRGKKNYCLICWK", "experiment": "aminoacylation of […]-tRNA transcript", "assay_type": "biochemical", "settings": "1 mM m-Tyr, 50 nM TyrRS, 25 °C; tRNA named tRNA(Tyr) in text, tRNA(Phe) in legend"}
{"smiles": "NC(Cc1cccc(O)c1)C(=O)O", "note": "(racemic) [m-Tyr, D,L-m-Tyr]", "values": [{"measurement": "aminoacylation of 32P-tRNA transcript", "result": "Aminoacylation of tRNA^Tyr with m-Tyr by E. coli TyrRS was detected in vitro"}]}
